Data as given in patent publication US9889094B2, “Particle size reduction of an antimuscarinic compound” (CHIESI FARMACEUTICI S.p.A., priority 2013, dated 2018).
Read-outs that look alike come from different tables or passages of the source.

Key:
[1] = Specific surface area by BET nitrogen adsorption; assay type: physicochemical; conditions: Example 1 powder; for BET SSA: storage 22±2° C., 60% relative humidity
Experimental: Advantageously, the specific surface area of the obtained particles upon drying and sieving, is from to 8 m^2/g, advantageously from to 7 m^2/g, preferably from 3 to 6 m^2/g. The Specific Surface Area is determined by Brunauer-Emmett-Teller (BET) nitrogen adsorption method according to a procedure known in the art.
Alternatively, the physical stability may be measured using the specific surface area of the drug particles analysed by adsorption analysis, BET surface measurement, according to a method known to the skilled person.
Specific surface area (SSA) of the dried and sieved particles, analyzed by BET nitrogen adsorption method, was determined to be of about 4.3 m^2/g.

[2] = Scanning Electron Microscopy (SEM) of particles; assay type: physicochemical; conditions: after the homogenization step, Example 1 (2H,3H-decafluoropentane); platelet-like particles
[3] = Drying and re-dispersion after wet bead milling in acetone (comparative example); assay type: physicochemical; conditions: wet bead milled in acetone, 200 rpm, 60 minutes; dried at 25° C. under low vacuum; white to off-white solid cake
Experimental: The vessel was sealed and the suspension homogenized into the planetary mill apparatus disclosed in WO 2007/020407, which is incorporated herein by reference in its entirety, at a disc speed of 200 rpm for 60 minutes at ambient temperature and pressure. After 60 minutes, the resulting drug suspension is separated from the milling media by filtering through a nylon mesh and the resulting drug suspension loaded into a drying tray.

[4] = Crystallinity / polymorphic form by X-ray powder diffraction and DSC; assay type: physicochemical; conditions: for XRD: Example 1 powder, storage 22±2° C., 60% relative humidity
[5] = Crystallinity / polymorphic form by DVS; assay type: physicochemical; conditions: Example 4 final product (dichloromethane) compared to the initial coarse drug
[6] = Example 1 powder (2H,3H-decafluoropentane), storage 22±2° C., 60% relative humidity, time 0
[7] = Example 1 powder, storage 22±2° C., 60% relative humidity, 1 W
[8] = Example 1 powder, storage 22±2° C., 60% relative humidity, 2 W
[9] = Example 1 powder, storage 22±2° C., 60% relative humidity, 3 M
[10] = Example 1 powder, storage 22±2° C., 60% relative humidity, 4 W
[11] = Example 4 powder (dichloromethane), time 0
[12] = Example 5 powder (perfluoroheptane isomer mixture), 45 minutes processing, time 0

## C[N+]1(C)CCC(OC(=O)C(O)(c2ccccc2)C2CCCC2)C1 (racemic) [rac-glycopyrronium bromide, (3S,2′R), (3R,2′S)-3-[(cyclopentylhydroxyphenylacetyl)oxy]-1,1-dimethylpyrrolidinium bromide]
[1]; dried and sieved particles
  Specific surface area (SSA): about 4.3 m^2/g
[1]; 1 W
  BET SSA: 4.198 m^2/g
[1]; 2 W
  BET SSA: 4.210 m^2/g
[1]; 3 M
  BET SSA: 4.00 m^2/g
[1]; 4 W
  BET SSA: 4.086 m^2/g
[1]; time 0
  BET SSA: 4.326 m^2/g
[2]
  average particle size by SEM: below 5 μm
[3]
  re-dispersibility of dried product: could not be re-dispersed under mechanical agitation
[4]; Example 1 final product compared to the initial coarse drug
  change in degree of crystallinity or polymorphic form (XPRD and DSC): no change in degree of crystallinity or polymorphic form
[4]; 4 W
  XRD: Crystalline
[4]; time 0
  XRD: Crystalline
[5]
  change in degree of crystallinity or polymorphic form (DVS): no change in degree of crystallinity or polymorphic form
[6]
  PSD d(v0.1): 0.71
  PSD d(v0.5): 1.85
  PSD d(v0.9): 4.77
Example 1 powder after micronization and drying (2H,3H-decafluoropentane)
  d(v0.5): 1.85 μm
Example 1 powder, storage 22±2° C., 60% relative humidity, up to 3 months
  change of particle size upon storage: does not significantly change
[7]
  PSD d(v0.1): 0.72
  PSD d(v0.5): 1.92
  PSD d(v0.9): 5.03
[8]
  PSD d(v0.1): 0.72
  PSD d(v0.5): 1.88
  PSD d(v0.9): 4.95
[9]
  PSD d(v0.1): 0.75
  PSD d(v0.5): 2.07
  PSD d(v0.9): 5.26
[10]
  PSD d(v0.1): 0.72
  PSD d(v0.5): 1.93
  PSD d(v0.9): 4.97
[11]
  PSD d(v0.1): 0.80
  PSD d(v0.5): 2.06
  PSD d(v0.9): 6.46
Example 4 powder after micronization and drying (dichloromethane)
  d(v0.5): 2.06 μm
[12]
  PSD d(v0.1): 0.66
  PSD d(v0.5): 1.70
  PSD d(v0.9): 4.31
